In patent US20130345254A1, “CYCLOHEXANE SUBSTITUTED AMINO CYCLOPENTANE DERIVATIVES AS USEFUL CCR2 ANTAGONISTS” (priority 2011, published 2013) one finds IC50 data, which are given here for two compounds.

The target of the assay is T1, human CCR2 (Homo sapiens, UniProt P41597).
T1 construct: expressed in transfected cells; host or cells: Ba/F3 cells (membrane preparation)
Briefly: CCR2 membrane binding assay (SPA, 125I-rhMCP-1 competition). The note with it: membranes from Ba/F3 cells transfected with human CCR2; 0.03 nM 125I-rhMCP-1; 4 h room temperature. The procedure: The radio-ligand binding assay was done using scintillation proximity assay (SPA) technology. Briefly, membranes (1 μg per assay point) from Ba/F3 cells transfected with human CCR2, and wheat germ agglutinin-coated SPA beads (80 μg per point; Amersham, Arlington Heights, Ill.), were pre-incubated for 30 min at room temperature in CCR2 buffer (50 mM HEPES (pH=7.4), 10 mM MgCl2, 10 mM NaCl, 1 mM CaCL2, 0.1% BSA, 10 μg/ml Saponin). At this point pre-bound SPA bead, membrane complex was incubated at room temperature for 4 h with varying concentrations of punitive CCR2 antagonists (in 1% DMSO, final) and 0.03 nM ^125I-rhMCP-1 in CCR2 Buffer (S.A. 2200 Ci/mmol, PerkinElmer Life and Analytical Science, Boston, Mass.; NEX332). Binding competition was measured using a 1450 Microbeta Trilux counter (Wallac, Gaithersburg, Md.). Binding constants (IC50 and slope) were calculated using GraphPad Prism software (GraphPad Software, Inc., La Jolla Calif.).

T1 sequence (P41597 whole entry): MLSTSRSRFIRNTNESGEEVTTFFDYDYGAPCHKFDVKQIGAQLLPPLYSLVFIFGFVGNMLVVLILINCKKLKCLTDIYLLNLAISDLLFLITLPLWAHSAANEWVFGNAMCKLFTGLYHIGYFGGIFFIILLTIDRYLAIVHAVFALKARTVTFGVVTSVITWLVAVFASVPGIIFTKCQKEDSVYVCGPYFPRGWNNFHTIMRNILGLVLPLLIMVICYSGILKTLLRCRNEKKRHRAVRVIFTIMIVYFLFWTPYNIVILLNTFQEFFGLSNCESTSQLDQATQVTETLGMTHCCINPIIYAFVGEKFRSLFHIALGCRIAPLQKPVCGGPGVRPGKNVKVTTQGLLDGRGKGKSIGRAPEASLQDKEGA

`CC=C1CCC(N[C@@H]2CC[C@H](C(=O)NCc3cc(C(F)(F)F)cc(C(F)(F)F)c3)C2)CC1` (some centres unmarked) [Compound 1] showed an IC50 of 2100 nM.

In turn, `CC=C1CCC(N[C@@H]2CC[C@@](C(=O)N3CCc4ncc(C(F)(F)F)cc4C3)(C(C)C)C2)CC1` (some centres unmarked) [Compound 2] had an IC50 of 9 nM.

Usually IC50 stands for the point on the concentration scale where inhibition reaches its midpoint. A high value points to weaker potency in that assay.
